Measurements: patent US10947188B2, “Small molecule ferroptosis inducers” (THE TRUSTEES OF COLUMBIA UNIVERSITY IN THE CITY OF NEW YORK, priority 2016, dated 2021)

Test system: BJeLR
Test: Modulatory profiling: Alamar Blue viability, lethal compound cotreated with death modulator (EC50, AUC)
Assay type: cell-based, human
Set-up: AUC, modulator BJ.Gd3+ / AUC, modulator BJ.LNAME / AUC, modulator BJ.Lmin / AUC, modulator BJ.3MA / AUC, modulator BJ.ALLN / AUC, modulator BJ.Boc D / AUC, modulator BJ.CHX / AUC, modulator BJ.Co2+ / AUC, modulator BJ.Nec-1 / AUC, modulator BJ.Pepstatin / AUC, modulator BJ.TLCK / AUC, modulator BJ.atoc / AUC, modulator BJ.trolox / AUC, modulator BJ.zVAD: unit not given beside the values
Details: BJeLR cells, modulatory profile value (AUC); for AUC, modulator BJ.3MA: lethal compound cotreated with modulator 3MA; for AUC, modulator BJ.ALLN: lethal compound cotreated with modulator ALLN; for AUC, modulator BJ.Boc D: lethal compound cotreated with modulator Boc D; for AUC, modulator BJ.CHX: lethal compound cotreated with modulator CHX; for AUC, modulator BJ.Co2+: lethal compound cotreated with modulator Co2+; for AUC, modulator BJ.DPQ: lethal compound cotreated with modulator DPQ; for AUC, modulator BJ.Gd3+: lethal compound cotreated with modulator Gd3+; for AUC, modulator BJ.LNAME: lethal compound cotreated with modulator LNAME; for AUC, modulator BJ.Lmin/NAD+: lethal compound cotreated with modulator Lmin/NAD+; for AUC, modulator BJ.Lmin: lethal compound cotreated with modulator Lmin; for AUC, modulator BJ.NAD+: lethal compound cotreated with modulator NAD+; for AUC, modulator BJ.NMMA: lethal compound cotreated with modulator NMMA; for AUC, modulator BJ.Nec-1: lethal compound cotreated with modulator Nec-1; for AUC, modulator BJ.Pepstatin: lethal compound cotreated with modulator Pepstatin; for AUC, modulator BJ.TLCK: lethal compound cotreated with modulator TLCK; for AUC, modulator BJ.atoc: lethal compound cotreated with modulator atoc; for AUC, modulator BJ.trolox: lethal compound cotreated with modulator trolox; for AUC, modulator BJ.zVAD: lethal compound cotreated with modulator zVAD

Structure (SMILES)	AUC, modulator BJ.3MA	AUC, modulator BJ.ALLN	AUC, modulator BJ.Boc D	AUC, modulator BJ.CHX	AUC, modulator BJ.Co2+	AUC, modulator BJ.DPQ	AUC, modulator BJ.Gd3+	AUC, modulator BJ.LNAME	AUC, modulator BJ.Lmin/NAD+	AUC, modulator BJ.Lmin	AUC, modulator BJ.NAD+	AUC, modulator BJ.NMMA	AUC, modulator BJ.Nec-1	AUC, modulator BJ.Pepstatin	AUC, modulator BJ.TLCK	AUC, modulator BJ.atoc	AUC, modulator BJ.trolox	AUC, modulator BJ.zVAD
Cc1cccc(-n2ncc(Cl)c(Cl)c2=O)c1 [CIL22]	−0.04329	−0.03232	−0.0406	0.1136	0.07615	0.005752	0.005899	0.0123	0.07278	0.002645	−0.005902	−0.007412	−0.01633	0.02724	−0.01321	0.01015	0.0184	0.03093
O=C1C(Cl)=C(N2CCOCC2)C(=O)C(Cl)=C1N1CCOCC1 [CIL11]	0.09004	0.01538	−0.04323	0.1239	0.07771	−0.01566	0.02905	−0.0003217	0.01344	−0.04034	−0.03919	−0.00378	0.02974	0.04125	−0.01155	−0.02082	−0.01782	−0.004517
C[C@@H]1C[C@@H]([C@H](O)CC2CC(=O)NC(=O)C2)C(=O)[C@@H](C)C1 [cycloheximide, Cycloheximide, reference compound]	0.03847	0.09461	0.02242	0.3613	0.2375	0.02122	0.02359	0.007696	0.1057	0.0775	0.08265	0.002535	0.03326	0.01475	0.03153	0.0001672	0.01856	0.02186
CN(C)CC(O)Cn1c2ccc(Cl)cc2c2cc(Cl)ccc21 (stereo not drawn) [CIL5]	0.08524	−0.1163	−0.07609	−0.0324	0.04705	0.002876	0.01146	−0.009787	−0.01738	−0.03698	2.99E−05	−0.0271	0.03195	0.06042	−0.02603	−0.00271	0.0183	−0.02054
CCCCS(=O)(=O)/C=C\C=C/S(=O)(=O)CCCC [CIL49]	0.04504	−0.05864	−0.0257	0.1692	0.009716	−0.002084	−0.006048	−0.007857	0.07067	0.03689	0.02344	0.006898	0.001972	0.02852	−0.03549	−0.008324	−0.02337	−0.001762
COc1cccc2c1C(=O)c1c(O)c3c(c(O)c1C2=O)C[C@@](O)(C(C)=O)C[C@@H]3O[C@H]1C[C@H](N)[C@H](O)[C@H](C)O1 [Daunorubicin]	0.03793	0.02846	0.03322	0.1497	0.2122	−0.03527	−0.005247	0.005526	0.1434	0.05475	0.1226	−0.01867	−0.02055	0.02539	0.02856	0.004145	−0.02026	0.05594
CC(C)C[C@H](NC(=O)[C@H](Cc1ccccc1)NC(=O)c1cnccn1)B(O)O [Bortezomib]	0.001928	−0.1031	0.03032	0.2984	0.2379	−0.007392	−0.03227	−0.008649	0.1491	0.09993	0.05175	−0.0002968	0.002293	0.000698	0.07108	0.01647	0.01237	0.005086
COC(=O)c1ccc([C@@H]2c3[nH]c4ccccc4c3C[C@@H](C(=O)OC)N2C(=O)CCl)cc1 [RSL3, reference compound]	0.09104	0.01266	0.03832	0.1841	0.1091	0.03115	0.02448	0.02932	0.3858	0.3462	0.04136	0.007806	0.2379	−0.0008093	0.2732	0.3601	0.3731	0.00586
COc1cc([C@@H]2c3cc4c(cc3[C@@H](O[C@@H]3O[C@@H]5CO[C@@H](C)O[C@H]5[C@H](O)[C@H]3O)[C@H]3COC(=O)[C@H]23)OCO4)cc(OC)c1O [Etoposide]	−0.06196	0.06099	0.0612	0.1255	0.0951	−0.0469	0.01317	0.004515	0.1011	0.04682	0.08359	−0.03678	−0.04354	0.01632	0.01399	−0.01038	−0.01808	0.06084
CCCCNc1c(Cl)cnn(-c2ccccc2)c1=O [CIL36]	0.06295	−0.03236	−0.0473	−0.03087	−0.03647	0.1393	0.01469	0.0008728	−0.09403	0.02336	−0.01826	0.03927	−0.1729	−0.01891	−0.04337	0.06822	−0.02322	0.00966
